In patent US20040034216A1, “3-Nitrogen-6,7-dioxygen steroids and uses related thereto” (priority 2003, published 2004):

Key:
[1] = Metabolic stability in human liver S9 fractions; assay type: in vitro ADME; settings: human, 10 μM, pH 7; for remains unchanged after 15 and even 30 minutes incubation with human S9 fractions: s9, 0.5 h
Source text: The therapeutic effectiveness of a test compound can be often directly related to its metabolic stability in vivo. The majority of known, marketed drugs are metabolized by a group of enzymes known as P450 enzymes. The S9 fraction of human liver contains all the P450 enzymes and also cytoplasmic enzymes that may be involved in the metabolism of new chemical entities. Metabolism in vitro using human S9 fractions is a standard assay to evaluate relative metabolic stability of new compounds. The test is performed as follows.
Reagents are thawed on ice and combined to make up a Master Mix as follows: Potassium phosphate (100 mM, pH 7), G6P (0.25 mM), G6PDH (2 U/ml), NADPH (1 mM), UDP (0.25 mM), APPS (0.25 mM), and S9 fraction (2 mg/ml). A volume of 498 μl of the Master mix is dispensed into each microcentrifuge tube. A volume of 2 μl of 2.5 mM test compound (final concentration of 10 μM) is dispensed into the center of the lid of the appropriate tube, and the lids gently closed to prevent mixing. Synchronous combination of test compound and master mix is achieved by simultaneous ten times inversion of the tubes, which are then incubated at 37° C. and shaken at 150 rpm for the appropriate incubation times. While incubation is in progress, all 0 time samples are mixed individually by three times inversion followed by the immediate addition of 500 μl ice cold acetonitrile with three times inversion to stop the reaction. Immediately after each 15 minutes and 30 minutes incubation is complete, ice cold acetonitrile is added to each tube and the tubes mixed by three times inversion. All sample tubes are incubated at −80° C. for a minimum of 15 minutes, thawed and remixed by inversion. Aliquots of 650 μl are transferred to Chromatographic Specialties micro-system spin filter system tubes (0.2 μm nylon membrane, C618505) and centrifuged at 13,000 rpm for 48 seconds. The sample filtrates are stored at −80° C.
Sample filtrates are analyzed on LCMS, and percent remaining after 15 and 30 minute incubation is calculated relative to the 0 minute incubation.
The metabolic stability of various compounds are summarized in Table 10 as the percent remaining after 15 or 30 minutes incubation with human liver S9 fractions.

[2] = tested on: sensitized Brown Norway rats; experiment: Ovalbumin-induced accumulation of inflammatory cells in lung lavage fluid (allergen-induced lung inflammation); assay type: in vivo, rat; settings: p.o.
Method: The ability of a compound to inhibit the allergen-induced accumulation of inflammatory cells such as eosinophils and neutrophils in the lavage fluid obtained from sensitized animals is indicative of that compound's anti-asthma activity. […] The test is conducted as follows.
Male Brown Norway rats are sensitized to ovalbumin by single intraperitoneal injection of 1 mg ovalbumin adsorbed to 100 mg […] (alum) in 1 ml sterile saline (saline control rats receive only sterile saline) on day 1, and allowed to sensitize until day 21. […] Rats are challenged with 0.5% ovalbumin in saline generated using a Devillbis nebulizer for 60 min on day 21.
Forty-eight hrs after challenge, animals are sacrificed with an overdose of intraperitoneally-delivered sodium pentobarbitol and the lungs are lavaged with cold 2×7 ml phosphate buffered saline. The recovered lavage fluid is placed on ice. The bronchoalveolar lavage fluid is centrifuged and the supernatant removed. The pellet is resuspended in phosphate buffered saline at 4° C. Cytospins are prepared and stained for differentiation and enumeration of cell types.
Test compound was administered in 300 μl corn oil (Tables 7 and 8) or water (Table 9), which were used as vehicles. Control animals received 300 μl corn oil or water alone, i.e., no drug. […] A negative value in Table 7, 8, or 9 indicates an exacerbation of the effect over the control animal.

Jurkat clone E6.1 cells = experiment: Antigen-induced calcium flux in anti-CD3 stimulated Jurkat cells (Fura 2AM); assay type: cell-based; settings: Homo sapiens, Jurkat, read-out: Calcium (% inhibition at 20 μM), 20 μM; anti-CD3 mAb stimulated Jurkat clone E6.1 cells
Source text: Elevation of cytoplasmic calcium concentration is a common and crucial event which follows the activation of many types of cell surface receptors. Increases in intracellular calcium that occur following agonist activation of inositol lipid hydrolysis are the results of calcium release from the endoplasmic reticulum and the influx of calcium through the plasma membrane. Increases in cytosolic calcium concentration are involved in many important cellular responses in the inflammatory process including adhesion, motility, gene expression, proliferation, and degranulation. Changes in intracellular calcium concentrations can affect both short and long term cellular responses. An assay method to evaluate a test compound's impact on calcium flux is provided as follows.
The resulting supernatants are discarded and each pellet is washed in 10 mL HBSS. Cell suspensions are accumulated and centrifuged for 5 minutes at 900 RPM to form a cell pellet. The resulting supernatant is discarded and the pellet is resuspended in HBSS at 1×10^7cells/mL. The cell suspension is transferred to a 20 mm petri dish and incubated at 37° C., 5% CO2 for 20 minutes.
One volume of Fura 2AM is mixed to one volume of detergent Pluronic F127. Cells are labeled with 4 μL of probe solution to each mL of cell suspension. The petri dish is wrapped in aluminum foil to protect from light and placed on a plate shaker for 30 minutes at room temperature.
The following steps are done in the laminar flow hood with the fluorescent lights turned off. The petri dish is removed from the shaker and the labeled cell suspension is transferred to a 15 mL conical tube and washed twice with HBSS as above. The cell pellet is resuspended in 12 mL HBSS and left wrapped in foil for 30 minutes at room temperature. The labeled cell suspension is aliquoted (100 μL/well) into a Dynex 96 well white opaque tissue culture plate. […] Selected compounds were tested for dose related activity. Test samples and activator (anti-CD3 mAb at final concentration of 4 μg/mL, PharMingen) are added manually (50 μL), such that the minimum time to acquire the first data point after stimulation is approximately 30 seconds. The calcium influx response to anti-CD3 mAb is measured as an “end point” assay. The entire plate is read in 100 seconds using a kinetic of 1 second per well.
The plate is read before the addition of anti-CD3 to monitor non-specific effect of samples/drugs. Fluorescence emission is measured at 510 nm with excitation alternating between 340 and 380 every second using an excitation/emission filter pair. Data from these dual wavelengths are represented as a ratio of 2 excitations wavelengths. This ratio is independent of intracellular dye and cell concentrations, enabling real comparison between experiments.

[3] = Pharmacokinetic profile in the monkey; assay type: in vivo
[4] = tested on: Rat Mast Cell Line (RBL-2H3); experiment: Antigen-induced release of hexosaminidase from a rat mast cell line (RBL-2H3); assay type: cell-based; settings: Rattus norvegicus, RBL-2H3, inhibition of antigen (DNP-HSA)-induced hexosaminidase release, tested at 0.3, 3, 10 and 30 μM, read-out: Hex IC50
Method: The anti-allergic effects of a compound of the present invention was evaluated by measuring its effect on antigen-induced secretion of hexosaminidase from a passively sensitized rat mast cell line. The ability of a test compound to inhibit the release of mast cell granule contents, e.g., histamine and hexosaminidase, is indicative of the anti-allergy and/or anti-asthma activity of the compound. Hexosaminidase is released from the mast cell granule along with histamine and other mediators during antigen challenge. The test is performed as follows.
RBL-2H3 cells are grown in culture and passively sensitized for 1 hour at 37° C. to dinitrophenol (DNP) using anti-human-DNP (IgE). Cells are incubated with test compound for 30 minutes at 37° C. and stimulated with 0.5 μg/ml DNP-HSA (antigen) for 30 minutes. Aliquots of the supernatant are removed and used to measure the amount of hexosaminidase released during challenge with the antigen. The amount of hexosaminidase present in the supernatant is determined colorimetrically by monitoring the enzymatic metabolism of p-nitrophenyl-N-acetyl-β-D-glucosaminide (p-NAG) over a period of 60 minutes at 405 nm. The effect of each test compound is determined as a percentage of the antigen-induced response (minus background release) obtained in the presence of DMSO alone. These values are used to determine the degrees of inhibition of antigen-induced hexosaminidase release from the cells.

[5] = Pharmacokinetic profile in the rat; assay type: in vivo
physchem = settings: water
[6] = 5 mg/kg/day for 4 days, corn oil, lung lavage fluid, relative to control animals
[7] = 0.1 mg/kg, 4 days qd, water vehicle
[8] = 0.3 mg/kg, 4 days qd, water vehicle
[9] = 1 mg/kg, 4 days qd, water vehicle

| SMILES | remains unchanged after 15 and even 30 minutes incubation with human S9 fractions [1] [%] | % inhibition of eosinophils [2, 6] [%] | inhibition at 20 µM (Jurkat clone E6.1 cells) [%] | maximal concentration in plasma [3] | IC50 [4] [µM] | maximal concentration in plasma [5] | solubility (physchem) [mg/mL] | % remaining after 15 min ([1]; s9, 15 min) [%] | % remaining after 30 min ([1]; s9, 30 min) [%] | % inhibition of eosinophils [2, 7] [%] | % inhibition of lymphocytes [2, 7] [%] | % inhibition of neutrophils [2, 7] [%] | % inhibition of eosinophils [2, 8] [%] | % inhibition of lymphocytes [2, 8] [%] | % inhibition of neutrophils [2, 8] [%] | % inhibition of eosinophils [2, 9] [%] | % inhibition of lymphocytes [2, 9] [%] | % inhibition of neutrophils [2, 9] [%] |
| --- | --- | --- | --- | --- | --- | --- | --- | --- | --- | --- | --- | --- | --- | --- | --- | --- | --- | --- |
| C/C=C1/CCC2C3C(CC[C@]12C)[C@@]1(C)CC[C@H](N)CC1[C@@H](O)[C@@H]3O (stereo partly shown) [Compound 28] | 100 | 85 | 29 | predictable and linear | 6.8 | predictable and linear | – | – | – | – | – | – | – | – | – | – | – | – |
| C/C=C1/CCC2C3C(CC[C@]12C)[C@@]1(C)CC[C@H](N)CC1[C@@H](O)[C@@H]3O (stereo partly shown) [Compound 83] | – | 67 | 30.3 | – | 7.7 | – | > 100 | – | – | – | – | – | – | – | – | – | – | – |
| C=C1CCC2C3C(CC[C@]12C)[C@@]1(C)CC[C@H](N)CC1[C@@H](O)[C@@H]3O (stereo partly shown) [Compound 89] | 100 | 57 | – | predictable and linear | – | predictable and linear | – | – | – | – | – | – | – | – | – | – | – | – |
| CC1(C)CCC2=C1CCC1C2[C@@H](O)[C@H](O)C2C[C@@H](N)CC[C@]12C (stereo partly shown) [Compound 139] | 100 | – | 26.3 | – | 10.3 | – | – | 109 ± 26 | 100 ± 10 | 46 | 19 | 42 | 41 | 34 | 62 | 42 | 56 | 63 |
